# Measured values from the supplement of paper PMC10307832.
# Key:
# Assay in all cases: relative viability (nuclei count vs DMSO), 5 days (fraction); higher = more cells survive
# [1] = compound: CC1=C(C(=NN1)C)CC2=C(C3=C(S2)N(C(=O)N(C3=O)C)CC(C)C)C(=O)N4C[C@@H](CO4)O + N=C(N)NC(=N)NCCc1ccccc1 [Phenformin] (partner 250 µM)
# How it was run: (§1)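 After 5 days of treatment, lung cancer cells in 1536-well plates were fixed and stained in a single step (final 0.05% Triton X-100, 1% formaldehyde, 1 ug/ml Hoechst) and their nuclei counted on 4× images. Treatment had been applied by pin tool the day after seeding as one drug alone or as a fixed anchor-drug dose with five library-drug doses (not always all listed) in √10 steps. Relative viability is the nuclei count of treated wells divided by that of vehicle wells, and values are medians of duplicate plates.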
# IDH-C35 + Phenformin = compound: Cc1ccccc1C(C(=O)NC1CCCCC1)N(C(=O)Cn1ccnc1C)c1cccc(F)c1 [IDH-C35] + N=C(N)NC(=N)NCCc1ccccc1 [Phenformin] (partner 250 µM)
# How it was run: as §1
# IDH-C35 + Luminespib = compound: Cc1ccccc1C(C(=O)NC1CCCCC1)N(C(=O)Cn1ccnc1C)c1cccc(F)c1 [IDH-C35] + CCNC(=O)c1noc(-c2cc(C(C)C)c(O)cc2O)c1-c1ccc(CN2CCOCC2)cc1 [Luminespib] (partner 0.01 µM)
# How it was run: as §1
# [2] = compound: CC1=C(C(=NN1)C)CC2=C(C3=C(S2)N(C(=O)N(C3=O)C)CC(C)C)C(=O)N4C[C@@H](CO4)O + CCNC(=O)c1noc(-c2cc(C(C)C)c(O)cc2O)c1-c1ccc(CN2CCOCC2)cc1 [Luminespib] (partner 0.01 µM)
# How it was run: as §1
cell line,measurement,setting,value
UMC-11,relative viability,[1]; first compound 0.0025 µM,0.168
same,relative viability,[1]; first compound 0.007906 µM,0.195
same,relative viability,[1]; first compound 0.025 µM,0.156
same,relative viability,[1]; first compound 0.07906 µM,0.17
same,relative viability,[1]; first compound 0.25 µM,0.188
same,relative viability,IDH-C35 + Phenformin; first compound 0.08 µM,0.317
same,relative viability,IDH-C35 + Phenformin; first compound 0.253 µM,0.337
same,relative viability,IDH-C35 + Phenformin; first compound 0.8 µM,0.33
same,relative viability,IDH-C35 + Phenformin; first compound 2.53 µM,0.313
same,relative viability,IDH-C35 + Phenformin; first compound 8 µM,0.291
same,relative viability,IDH-C35 + Luminespib; first compound 0.08 µM,1.01
same,relative viability,IDH-C35 + Luminespib; first compound 0.253 µM,1.03
same,relative viability,IDH-C35 + Luminespib; first compound 0.8 µM,1.02
same,relative viability,IDH-C35 + Luminespib; first compound 2.53 µM,1.08
same,relative viability,IDH-C35 + Luminespib; first compound 8 µM,1.01
same,relative viability,[2]; first compound 0.0025 µM,1.06
same,relative viability,[2]; first compound 0.007906 µM,1.33
same,relative viability,[2]; first compound 0.025 µM,0.959
same,relative viability,[2]; first compound 0.07906 µM,1.08
same,relative viability,[2]; first compound 0.25 µM,1.13
